# Results as given in patent US20260250290A1 (BRISTOL-MYERS SQUIBB COMPANY, priority 2023, published 2026).
# Where a name gives a salt, the structure may show the parent alone.
# Target: T1, SGK1 (Homo sapiens, UniProt O00141)
# T1 sequence (O00141 1-431): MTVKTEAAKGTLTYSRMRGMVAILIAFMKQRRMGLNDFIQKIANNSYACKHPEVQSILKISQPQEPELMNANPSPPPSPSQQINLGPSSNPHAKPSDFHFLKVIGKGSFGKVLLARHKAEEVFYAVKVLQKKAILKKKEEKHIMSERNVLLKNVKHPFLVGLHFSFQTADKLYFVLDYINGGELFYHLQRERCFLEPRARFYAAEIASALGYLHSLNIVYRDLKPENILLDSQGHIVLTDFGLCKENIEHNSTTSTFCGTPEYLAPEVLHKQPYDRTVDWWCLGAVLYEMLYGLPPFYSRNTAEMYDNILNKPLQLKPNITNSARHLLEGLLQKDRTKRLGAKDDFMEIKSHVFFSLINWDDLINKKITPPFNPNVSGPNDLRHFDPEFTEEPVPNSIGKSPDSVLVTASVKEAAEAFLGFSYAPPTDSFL
# Assay: SGK1 inhibition Assay B (Echo mass spectrometry of phosphorylated peptide product)
# Assay type: biochemical
# Conditions: 60 min at room temperature
row,Compound,IC50 [nM]
1,"CN1[C@@H]2CC[C@H]1C[C@H](Oc1cc(Cl)sc1C(=O)N[C@@H]1CCCN(c3cc(-c4ccc(-n5cccn5)cc4)n4ncnc(N)c34)C1)C2 [Example 837, N-((R)-1-(7-(4-(1H-pyrazol-1-yl)phenyl)-4-aminopyrrolo[2,1-f][1,2,4]triazin-5-yl)piperidin-3-yl)-5-chloro-3-(((1R,3s,5S)-8-methyl-8-azabicyclo[3.2.1]octan-3-yl)oxy)thiophene-2-carboxamide]",4
2,"CC(=O)c1ccc(-c2cc(N3CCC[C@@H](NC(=O)c4sc(Cl)cc4O[C@@H]4C[C@H]5CC[C@@H](C4)N5C)C3)c3c(N)ncnn23)cn1 [Example 838, N-((R)-1-(7-(6-acetylpyridin-3-yl)-4-aminopyrrolo[2,1-f][1,2,4]triazin-5-yl)piperidin-3-yl)-5-chloro-3-(((1R,3s,5S)-8-methyl-8-azabicyclo[3.2.1]octan-3-yl)oxy)thiophene-2-carboxamide]",2
3,"CC(=O)c1ccc(-c2cc(N3CCC[C@@H](NC(=O)c4sc(Cl)cc4O[C@@H]4C[C@H]5CC[C@@H](C4)N5C)C3)c3c(N)ncnn23)cc1F [Example 839, N-((R)-1-(7-(4-acetyl-3-fluorophenyl)-4-aminopyrrolo[2,1-f][1,2,4]triazin-5-yl)piperidin-3-yl)-5-chloro-3-(((1R,3s,5S)-8-methyl-8-azabicyclo[3.2.1]octan-3-yl)oxy)thiophene-2-carboxamide]",2
4,"CN1[C@@H]2CC[C@H]1C[C@H](Oc1cc(Cl)sc1C(=O)N[C@@H]1CCCN(c3cc(-c4ccc(C(F)(F)F)c(F)c4)n4ncnc(N)c34)C1)C2 [Example 841, N-((R)-1-(4-amino-7-(3-fluoro-4-(trifluoromethyl)phenyl)pyrrolo[2,1-f][1,2,4]triazin-5-yl)piperidin-3-yl)-5-chloro-3-(((1R,3s,5S)-8-methyl-8-azabicyclo[3.2.1]octan-3-yl)oxy)thiophene-2-carboxamide]",17
5,"CN1[C@@H]2CC[C@H]1C[C@H](Oc1cc(Cl)sc1C(=O)N[C@@H]1CCCN(c3cc(-c4cnc(-n5cnnn5)c(F)c4)n4ncnc(N)c34)C1)C2 [Example 843, N-((R)-1-(4-amino-7-(5-fluoro-6-(1H-tetrazol-1-yl)pyridin-3-yl)pyrrolo[2,1-f][1,2,4]triazin-5-yl)piperidin-3-yl)-5-chloro-3-(((1R,3s,5S)-8-methyl-8-azabicyclo[3.2.1]octan-3-yl)oxy)thiophene-2-carboxamide]",2
6,"Cc1cc(O[C@@H]2C[C@H]3CC[C@@H](C2)N3C)c(C(=O)N[C@@H]2CCCN(c3cc(-c4cc(F)c(-n5cnnn5)c(F)c4)n4ncnc(N)c34)C2)s1 [Example 844, N-((R)-1-(4-amino-7-(3,5-difluoro-4-(1H-tetrazol-1-yl)phenyl)pyrrolo[2,1-f][1,2,4]triazin-5-yl)piperidin-3-yl)-5-methyl-3-(((1R,3s,5S)-8-methyl-8-azabicyclo[3.2.1]octan-3-yl)oxy)thiophene-2-carboxamide]",3
7,"Cc1cc(O[C@@H]2C[C@H]3CC[C@@H](C2)N3C)c(C(=O)N[C@@H]2CCCN(c3cc(-c4cnc(-n5cnnn5)c(F)c4)n4ncnc(N)c34)C2)s1 [Example 845, N-((R)-1-(4-amino-7-(5-fluoro-6-(1H-tetrazol-1-yl)pyridin-3-yl)pyrrolo[2,1-f][1,2,4]triazin-5-yl)piperidin-3-yl)-5-methyl-3-(((1R,3s,5S)-8-methyl-8-azabicyclo[3.2.1]octan-3-yl)oxy)thiophene-2-carboxamide, TFA salt]",3
8,"CC(=O)c1ccc(-c2cc(N3CCC[C@@H](NC(=O)c4sc(C)cc4O[C@@H]4C[C@H]5CC[C@@H](C4)N5C)C3)c3c(N)ncnn23)cn1 [Example 846, N-((R)-1-(7-(6-acetylpyridin-3-yl)-4-aminopyrrolo[2,1-f][1,2,4]triazin-5-yl)piperidin-3-yl)-5-methyl-3-(((1R,3s,5S)-8-methyl-8-azabicyclo[3.2.1]octan-3-yl)oxy)thiophene-2-carboxamide]",16
9,"Cc1cc(O[C@@H]2C[C@H]3CC[C@@H](C2)N3C)c(C(=O)N[C@@H]2CCCN(c3cc(-c4ccc(-n5cnnn5)c(F)c4)n4ncnc(N)c34)C2)s1 [Example 847, N-((R)-1-(4-amino-7-(3-fluoro-4-(1H-tetrazol-1-yl)phenyl)pyrrolo[2,1-f][1,2,4]triazin-5-yl)piperidin-3-yl)-5-methyl-3-(((1R,3s,5S)-8-methyl-8-azabicyclo[3.2.1]octan-3-yl)oxy)thiophene-2-carboxamide, TFA salt]",2
10,"Cc1cc(O[C@@H]2C[C@H]3CC[C@@H](C2)N3C)c(C(=O)N[C@@H]2CCCN(c3cc(-c4cnn(C(F)F)c4)n4ncnc(N)c34)C2)s1 [Example 848, N-((R)-1-(4-amino-7-(1-(difluoromethyl)-1H-pyrazol-4-yl)pyrrolo[2,1-f][1,2,4]triazin-5-yl)piperidin-3-yl)-5-methyl-3-(((1R,3s,5S)-8-methyl-8-azabicyclo[3.2.1]octan-3-yl)oxy)thiophene-2-carboxamide, TFA salt]",6
11,"CN1CCN(c2nccc(C(=O)N[C@@H]3CCCN(c4cc(-c5ccc(-n6cnnn6)c(F)c5)n5ncnc(N)c45)C3)n2)CC1 [Example 849, (R)-N-(1-(4-amino-7-(3-fluoro-4-(1H-tetrazol-1-yl)phenyl)pyrrolo[2,1-f][1,2,4]triazin-5-yl)piperidin-3-yl)-2-(4-methylpiperazin-1-yl)pyrimidine-4-carboxamide]",2
12,"Cc1cc(-c2cc(N3CCC[C@@H](NC(=O)c4ccnc(N5CCN(C)CC5)n4)C3)c3c(N)ncnn23)ccc1-n1cnnn1 [Example 850, (R)-N-(1-(4-amino-7-(3-methyl-4-(1H-tetrazol-1-yl)phenyl)pyrrolo[2,1-f][1,2,4]triazin-5-yl)piperidin-3-yl)-2-(4-methylpiperazin-1-yl)pyrimidine-4-carboxamide]",10
13,"CC(=O)c1ccc(-c2cc(N3CCC[C@@H](NC(=O)c4ccnc(N5CCN(C)CC5)n4)C3)c3c(N)ncnn23)cn1 [Example 851, (R)-N-(1-(7-(6-acetylpyridin-3-yl)-4-aminopyrrolo[2,1-f][1,2,4]triazin-5-yl)piperidin-3-yl)-2-(4-methylpiperazin-1-yl)pyrimidine-4-carboxamide]",18
14,"CN1CCN(c2nccc(C(=O)N[C@@H]3CCCN(c4cc(-c5ccc(-n6cnnn6)c(CO)c5)n5ncnc(N)c45)C3)n2)CC1 [Example 852, (R)-N-(1-(4-amino-7-(3-(hydroxymethyl)-4-(1H-tetrazol-1-yl)phenyl)pyrrolo[2,1-f][1,2,4]triazin-5-yl)piperidin-3-yl)-2-(4-methylpiperazin-1-yl)pyrimidine-4-carboxamide, TFA salt]",10
15,"CN1CCN(c2nccc(C(=O)N[C@@H]3CCCN(c4cc(-c5cc(F)c(-n6cnnn6)cc5F)n5ncnc(N)c45)C3)n2)CC1 [Example 853, (R)-N-(1-(4-amino-7-(2,5-difluoro-4-(1H-tetrazol-1-yl)phenyl)pyrrolo[2,1-f][1,2,4]triazin-5-yl)piperidin-3-y1)-2-(4-methylpiperazin-1-yl)pyrimidine-4-carboxamide]",12
16,CN1CCN(c2nccc(C(=O)N[C@@H]3CCCN(c4cc(-c5cc(F)c(-n6cnnn6)c(F)c5)n5ncnc(N)c45)C3)n2)CC1 [Example 854],1
17,"COc1cc(-c2cc(N3CCC[C@@H](NC(=O)c4ccnc(N5CCN(C)CC5)n4)C3)c3c(N)ncnn23)ccc1-n1cnnn1 [Example 855, (R)-N-(1-(4-amino-7-(3-methoxy-4-(1H-tetrazol-1-yl)phenyl)pyrrolo[2,1-f][1,2,4]triazin-5-yl)piperidin-3-yl)-2-(4-methylpiperazin-1-yl)pyrimidine-4-carboxamide]",14
18,"CN1CCN(c2nccc(C(=O)N[C@@H]3CCCN(c4cc(-c5cnc(-n6cnnn6)nc5)n5ncnc(N)c45)C3)n2)CC1 [Example 856, (R)-N-(1-(7-(2-(1H-tetrazol-1-yl)pyrimidin-5-yl)-4-aminopyrrolo[2,1-f][1,2,4]triazin-5-yl)piperidin-3-yl)-2-(4-methylpiperazin-1-yl)pyrimidine-4-carboxamide]",16
19,CN1CCN(c2nccc(C(=O)N[C@@H]3CCCN(c4cc(-c5cnc(-n6cnnn6)c(F)c5)n5ncnc(N)c45)C3)n2)CC1 [Example 858],4
20,"COC(=O)N1CC=C(c2cc(N3CCC[C@@H](NC(=O)c4ccnc(N5CCN(C)CC5)n4)C3)c3c(N)ncnn23)C1 [Example 859, methyl (R)-3-(4-amino-5-(3-(2-(4-methylpiperazin-1-yl)pyrimidine-4-carboxamido)piperidin-1-yl)pyrrolo[2,1-f][1,2,4]triazin-7-yl)-2,5-dihydro-1H-pyrrole-1-carboxylate]",5
21,"N#Cc1ccc(C(=O)N[C@@H]2CCCN(c3cc(-c4cnc(-n5cnnn5)c(F)c4)n4ncnc(N)c34)C2)s1 [Example 860, (R)-N-(1-(4-amino-7-(5-fluoro-6-(1H-tetrazol-1-yl)pyridin-3-yl)pyrrolo[2,1-f][1,2,4]triazin-5-yl)piperidin-3-yl)-5-cyanothiophene-2-carboxamide]",3
22,"CC(=O)N1CC=C(c2cc(N3CCC[C@@H](NC(=O)c4sc(Cl)cc4OCC45CCCN4CCC5)C3)c3c(N)ncnn23)C1 [Example 917, N-[(3R)-1-[7-(1-acetyl-2,5-dihydro-1H-pyrrol-3-yl)-4-aminopyrrolo[2,1-f][1,2,4]triazin-5-yl]piperidin-3-yl]-5-chloro-3-[(hexahydro-1H-pyrrolizin-7a-yl)methoxy]thiophene-2-carboxamide]",3
